Data: patent publication US7396943B2, “Opioid receptor antagonists” (Eli Lilly and Company, priority 2004, dated 2008)
Where a name gives a salt, the structure may show the parent alone.

Columns and labels:
Assay type in all cases: biochemical
mu opioid receptor (MOR) = mu opioid receptor (MOR) (Homo sapiens, UniProt P35372); assay: GTP-γ-S binding assay (SPA), antagonist mode, mu; conditions: antagonism of agonist DAMGO 1 micromolar; membranes; Kb by Cheng-Prusoff equation; read-out: In Vitro Antagonism GTP-γ-S Kb (nM) Mu
Procedure: (§1) A scintillation proximity assay (SPA)-based GTP-γ-S^35 assay format was developed based on previous opioid (Emmerson et al., J. Pharm Exp Ther 278, 1121, 1996; Horng et al., Society for Neuroscience Abstracts, 434.6, 2000) and muscarinic (DeLapp et al., JPET 289, 946, 1999) assay formats. Membranes were resuspended in 20 mM HEPES, 100 mM NaCl, 5 mM MgCl2, 1 mM DTT, and 1 mM EDTA. […] of GTP-γ-[35S], compound, membrane suspension (20 microgram/well), and wheat germ agglutinin coated SPA beads (1 mg/well) were added to clear bottom 96 well assay plates. GDP ([…]) was added to the membrane solution prior to addition to the assay plates. Plates were sealed and incubated for four hours at room temperature then placed in a refrigerator overnight to allow the beads to settle. Signal stability at 4° C. was determined to be >60 hours. Plates were warmed to room temperature and counted in a Wallac Microbeta scintillation counter. For antagonist assays, specific agonists were added at the following concentrations: (MOR) DAMGO 1 micromolar, (DOR) DPDPE 30 nM, (KOR) US69593 300 nM. Kb's were determined by Cheng-Prusoff equation (see Cheng and Prusoff, Biochem. Pharmacol. 22, 3099 1973).

[1] = target: kappa opioid receptor (KOR) (Homo sapiens, UniProt P41145); assay: GTP-γ-S binding assay (SPA), antagonist mode, kappa; conditions: antagonism of agonist US69593 300 nM; membranes; Kb by Cheng-Prusoff equation; read-out: In Vitro Antagonism GTP-γ-S Kb (nM) Kappa
Procedure: as §1

[2] = target: delta opioid receptor (DOR) (Homo sapiens, UniProt P41143); assay: GTP-γ-S binding assay (SPA), antagonist mode, delta; conditions: antagonism of agonist DPDPE 30 nM; membranes; Kb by Cheng-Prusoff equation; read-out: In Vitro Antagonism GTP-γ-S Kb (nM) Delta
Procedure: as §1

Sequence of delta opioid receptor (DOR) (P41143 whole entry): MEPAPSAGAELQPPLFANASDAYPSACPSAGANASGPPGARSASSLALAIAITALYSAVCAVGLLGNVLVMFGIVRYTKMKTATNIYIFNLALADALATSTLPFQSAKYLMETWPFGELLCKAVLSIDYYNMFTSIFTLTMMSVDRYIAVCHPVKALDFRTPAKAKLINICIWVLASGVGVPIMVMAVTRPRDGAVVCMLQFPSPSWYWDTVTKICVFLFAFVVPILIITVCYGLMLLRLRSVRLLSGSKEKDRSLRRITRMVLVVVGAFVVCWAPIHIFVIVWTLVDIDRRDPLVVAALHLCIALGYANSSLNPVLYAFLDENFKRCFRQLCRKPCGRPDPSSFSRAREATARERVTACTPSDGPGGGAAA
Sequence of kappa opioid receptor (KOR) (P41145 whole entry): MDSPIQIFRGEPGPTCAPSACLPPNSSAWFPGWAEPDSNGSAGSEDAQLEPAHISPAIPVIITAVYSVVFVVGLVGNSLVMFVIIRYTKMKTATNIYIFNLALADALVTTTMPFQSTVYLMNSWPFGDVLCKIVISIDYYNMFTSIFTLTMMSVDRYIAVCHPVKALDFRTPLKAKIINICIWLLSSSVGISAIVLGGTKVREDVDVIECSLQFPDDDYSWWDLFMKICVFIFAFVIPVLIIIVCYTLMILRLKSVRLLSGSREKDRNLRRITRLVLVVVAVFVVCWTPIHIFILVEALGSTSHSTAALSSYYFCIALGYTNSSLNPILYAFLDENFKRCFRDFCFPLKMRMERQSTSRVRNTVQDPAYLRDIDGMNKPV
Sequence of mu opioid receptor (MOR) (P35372 whole entry): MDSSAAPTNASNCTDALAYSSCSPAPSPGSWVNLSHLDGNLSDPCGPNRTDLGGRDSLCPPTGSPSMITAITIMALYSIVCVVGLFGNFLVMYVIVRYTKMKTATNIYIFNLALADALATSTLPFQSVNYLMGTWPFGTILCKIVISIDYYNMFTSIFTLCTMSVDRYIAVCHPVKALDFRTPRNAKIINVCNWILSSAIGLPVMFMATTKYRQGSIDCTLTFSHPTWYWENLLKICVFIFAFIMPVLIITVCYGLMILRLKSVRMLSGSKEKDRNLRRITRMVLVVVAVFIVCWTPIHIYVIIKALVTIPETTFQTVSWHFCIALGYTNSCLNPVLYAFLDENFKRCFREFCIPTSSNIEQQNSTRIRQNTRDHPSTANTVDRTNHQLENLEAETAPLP

Row | SMILES | Kb (mu opioid receptor (MOR)) | Kb [1] | Kb [2]
1 | CC(C)CCNCc1ccc(Oc2ccc(C(N)=O)cc2)s1 [Example 2, 4-{5-[(3-Methyl-butylamino)-methyl]-thiophen-2-yloxy}-benzamide] | 3.7 nM | 2.2 nM | 19.4 nM
2 | NC(=O)c1ccc(Oc2ccc(CNCCc3ccccc3)s2)cc1 [Example 1, 4-[5-(Phenethylamino-methyl)-thiophen-2-yloxy]-benzamide] | 0.6 nM | 4.6 nM | 3.3 nM
3 | NC(=O)c1ccc(Oc2ccc(CNCCc3cccc(F)c3)s2)cc1 [Example 3, 4-(5-{[2-(3-Fluoro-phenyl)-ethylamino]-methyl}-thiophen-2-yloxy)-benzamide] | 0.6 nM | 3.9 nM | 1.6 nM
4 | COc1cc(C(N)=O)ccc1Oc1ccc(CNCCC(C)C)s1 [Example 8, 3-Methoxy-4-{5-[(3-methyl-butylamino)-methyl]-thiophen-2-yloxy}-benzamide hydrochloride] | 4.7 nM | 3.2 nM | 40.5 nM
5 | NC(=O)c1ccc(Oc2ccc(CNCCc3cccs3)s2)cc1 [Example 5, 4-{5-[(2-Thiophen-2-yl-ethylamino)-methyl]-thiophen-2-yloxy}-benzamide] | 0.6 nM | 1.4 nM | 2.4 nM
6 | CC(C)(C)CCNCc1ccc(Oc2ccc(C(N)=O)cc2)s1 [Example 6, 4-{5-[(3,3-Dimethyl-butylamino)-methyl]-thiophen-2-yloxy}-benzamide] | 5.7 nM | – | 13.7 nM
7 | NC(=O)c1ccc(Oc2ccc(CNCCC3CCCC3)s2)cc1 [Example 4, 4-{5-[(2-Cyclopentyl-ethylamino)-methyl]-thiophen-2-yloxy}-benzamide] | 0.6 nM | 1 nM | 2.7 nM
8 | COc1cc(C(N)=O)ccc1Oc1ccc(CNCCc2ccccc2)s1 [Example 7, 3-Methoxy-4-[5-(phenethylamino-methyl)-thiophen-2-yloxy]-benzamide hydrochloride] | 0.3 nM | 4 nM | 1.3 nM
